Columns and labels:
Assay in all cases: Growth inhibition GI50 in vitro (CCK8/MTT, 72 h)
Assay type in all cases: cell-based, human
H1975 (EGFR L858R/T790M) = settings: Homo sapiens, NCI-H1975; Table 13, 72 h; read-out: Range of GI50 H1975 (EGFR L858R/T790M)
Protocol: (§1) PC-9ER is an acquired Erlotinib resistance cell line of PC-9 cells developed by the investor. […] The four cell lines above were cultured with 1×RPMI1640 complete medium (supplement with 10% FBS). Human colon cancer cell line SW48 (EGFR G719S positive, ATCC). was cultured with L15 complete medium (10% FB S).
(§2) The suspension cells were collected by centrifugation. The supernatant was discard and the cell pellet was resuspended and counted. Different cell concentrations (5˜10×10^4 cells/mL) were prepared according to the growth cycle of each cell line and then seeded on a 96-well plate (Corning), 100 μL/well. The cells were incubated over night at 37° C., 5% CO2. The compounds were added to the cells on the second day with 2 wells in parallel. The final concentration of organic solvent shall not exceed 1%. The cells were continually incubated for 72 h, and then subjected to MTT assay.
(§3) The present compounds and the reference compounds were dissolved with DMSO (Sigma), respectively. […] The storage concentration of compounds was 10 mM and kept at −20° C. They were diluted by 2 times or 10 times with serial dilution before using.
(§4) Dojindo CCK8 reagent kit was used as MTT assay. […] FC meter was used as microplate reader.
(§5) Adherent cell culture medium was discard and immediately replaced with fresh prepared medium which contains 10% CCK8 reagent (100 μL/well). For the suspension cells, CCK8 was directly added to 10% of the final concentration. The cells were continually incubated for 1˜4 h. When the color of control wells turned to dark yellow, the absorption value was measured at OD450 nm. The cell growth rate was calculated according to the following formula: cell growth rate (%)=100*(T−T0)/(C−T0), T=optical density of drug treatment cell well—optical density of blank control well; T0=optical density of cell well before drug treatment—optical density of blank control well; C=optical density of cell well of solvent control group—optical density of blank control well. […] The experiment was independently repeated 1˜3 times, and subject to biological statistical analysis.

PC-9 (EGFR dE746-A750) = settings: Homo sapiens; Table 13, 72 h; read-out: Range of GI50 PC-9 (EGFR dE746-A750)
Protocol: as §1, §2, §3, §4, §5

N87 (HER2 Amp) = settings: Homo sapiens; Table 13, 72 h; read-out: Range of GI50 N87 (HER2 Amp)
A549 (EGFR WT) = settings: Homo sapiens, A549; Table 13, 72 h; read-out: Range of GI50 A549 (EGFR WT)
Text: EGFR wild type cell lines: human epidermal cancer cell line A431 (EGFR WT, amplification and high expression, from Shanghai Cell Bank of Chinese Academy of Sciences and ATCC), NSCLC cell lines NCI-H460 (EGFR WT, Kras G61H and PI3KCA E545K mutants, ATCC) and NCI-H1299 (EGFR WT, ATCC), melanoma cell line A375 (EGFR WT and BRAF V600E mutant, from Shanghai Cell Bank of Chinese Academy of Sciences, ATCC), human lung cancer cell line NCI-H292 (EGFR WT, from human lung mucoepidermoid carcinoma/lymphatic metastasis, purchased from Shanghai Cell Bank of Chinese Academy of Sciences) were cultured with 1×RPMI1640 complete medium which was supplement with 10% FBS. NSCLC cell line A549 (EGFR WT and Kras G12S mutant, from Shanghai Cell Bank of Chinese Academy of Sciences) was cultured with 1×Ham'S F12K complete medium which was supplement with 10% FBS, 1% double-antibiotics and 2 mM glutamine.
as §2, §3, §4, §5

Compound | GI50 (H1975 (EGFR L858R/T790M)) [nM] | GI50 (PC-9 (EGFR dE746-A750)) [nM] | GI50 (N87 (HER2 Amp)) [nM] | GI50 (A549 (EGFR WT)) [nM]
C=CC(=O)Nc1cc(Nc2cc(Nc3cc(F)c(OCCOC)c(Cl)c3)ncn2)c(OC)cc1N(C)CCN(C)C [Compound 237, N-(5-(6-(3-chloro-5-fluoro-4-(2-methoxyl-ethoxyl)-phenylamino)-pyrimidin-4-yl-amino)-2-((2-dimethylamino-ethyl)-methyl-amino)-4-methoxyl-phenyl)-acrylamide] | 10 to 100 | 10 to 100 | 10 to 100 | > 1000
C=CC(=O)Nc1cc(Nc2cc(Nc3ccc(OC)c(S(=O)(=O)NC)c3)ncn2)c(OC)cc1N(C)CCN(C)C [Compound 238] | 100 to 1000 | 100 to 1000 | 100 to 1000 | > 1000
C=CC(=O)Nc1cc(Nc2cc(Nc3cc(OC)c(Cl)cc3Cl)ncn2)c(OC)cc1N1CCN(C)CC1 [Compound 239, N-(5-(6-(2,4-dichloro-5-methoxyl-phenylamino)-pyrimidin-4-yl-amino)-2-(4-methyl-piperazin-1-yl)-4-methoxyl-phenyl)-acrylamide] | 10 to 100 | < 10 | 10 to 100 | > 1000
C=CC(=O)Nc1cc(Nc2cc(Nc3cc(OC)c(Cl)cc3Cl)ncn2)c(OC)cc1N1CCC(N2CCOCC2)CC1 [Compound 240, N-(5-(6-(2,4-dichloro-5-methoxyl-phenylamino)-pyrimidin-4-yl-amino)-2-(4-(morpholin-1-yl)-piperidin-1-yl)-4-methoxyl-phenyl)-acrylamide] | 10 to 100 | < 10 | < 10 | > 1000
C=CC(=O)Nc1cc(Nc2cc(Nc3cc(OC)c(Cl)cc3Cl)ncn2)c(OC)cc1N(C)CC(=O)N1CCN(C)CC1 [Compound 241, N-(5-(6-(2,4-dichloro-5-methoxyl-phenylamino)-pyrimidin-4-yl-amino)-2-(methyl-(2-(4-methyl-piperazin-1-yl)-2-oxoethyl)-amino)-4-methoxyl-phenyl)-acrylamide] | 100 to 1000 | 100 to 1000 | 100 to 1000 | > 1000
C=CC(=O)Nc1cc(Nc2cc(Nc3cc(OC)c(Cl)cc3Cl)ncn2)c(OC)cc1OCCN(C)C [Compound 242, N-(5-(6-(2,4-dichloro-5-methoxyl-phenylamino)-pyrimidin-4-ylamino)-2-(2-dimethylamino-ethoxyl)-4-methoxyl-phenyl)-acrylamide] | < 10 | < 10 | < 10 | > 1000
C=CC(=O)Nc1cc(Nc2cc(Nc3cc(OC)c(Cl)cc3Cl)ncn2)c(OC)cc1OCCN1CCOCC1 [Compound 243] | 10 to 100 | 10 to 100 | 10 to 100 | > 1000
C=CC(=O)Nc1cc(Nc2cc(Nc3cc(OC)c(Cl)cc3Cl)ncn2)c(OC)cc1OCCN1CCCC1 [Compound 244, N-(5-(6-(2,4-dichloro-5-methoxyl-phenylamino)-pyrimidin-4-yl-amino)-2-(2-(pyrrolidin-1-yl)-ethoxyl)-4-methoxyl-phenyl)-acrylamide] | 10 to 100 | 10 to 100 | 10 to 100 | > 1000
C=CC(=O)Nc1cc(Nc2cc(Nc3cc(OC)c(Cl)cc3Cl)ncn2)c(OC)cc1OCCCN1CCCC1 [Compound 245] | 10 to 100 | 10 to 100 | 10 to 100 | > 1000
C=CC(=O)Nc1cc(Nc2cc(Nc3cc(OC)c(Cl)cc3Cl)ncn2)c(OC)cc1OCCN1CCCCC1 [Compound 246] | 10 to 100 | 10 to 100 | 10 to 100 | > 1000
C=CC(=O)Nc1cc(Nc2cc(Nc3cc(OC)c(Cl)cc3Cl)ncn2)c(OC)cc1OCCN1CCN(C)CC1 [Compound 247, N-(5-(6-(2,4-dichloro-5-methoxyl-phenylamino)-pyrimidin-4-yl-amino)-2-(2-(4-methyl-piperazin-1-yl)-ethoxyl)-4-methoxyl-phenyl)-acrylamide] | 10 to 100 | < 10 | < 10 | > 1000
C=CC(=O)Nc1cc(Nc2cc(Nc3cc(OC)c(Cl)cc3Cl)ncn2)c(OC)cc1OCCCN1CCN(C)CC1 [Compound 248] | 10 to 100 | < 10 | < 10 | > 1000
C=CC(=O)Nc1cc(Nc2cc(N(C)c3cc(OC)c(Cl)cc3Cl)ncn2)c(OC)cc1N(C)CCN(C)C [Compound 249, N-(5-(6-((2,4-dichloro-5-methoxyl-phenyl)-methyl-amino)-pyrimidin-4-ylamino)-2-((2-dimethylamino-ethyl)-methyl-amino)-4-methoxyl-phenyl)-acrylamide] | 10 to 100 | < 10 | < 10 | > 1000
C=CC(=O)Nc1cc(Nc2cc(Nc3ccc(OC(C)(C)C)c(Cl)c3)ncn2)c(OC)cc1N(C)CCN(C)C [Compound 250, N-(5-(6-(3-chloro-4-tert-butoxy-phenylamino)-pyrimidin-4-yl-amino)-2-((2-dimethylamino-ethyl)-methyl-amino)-4-methoxyl-phenyl)-acrylamide] | 10 to 100 | < 10 | < 10 | > 1000
C#Cc1cc(Nc2cc(Nc3cc(NC(=O)C=C)c(N(C)CCN(C)C)cc3OC)ncn2)ccc1OC [Compound 251, N-(5-(6-(3-acetenyl-4-methoxyl-phenylamino)-pyrimidin-4-yl-amino)-2-((2-dimethylamino-ethyl)-methyl-amino)-4-methoxyl-phenyl)-acrylamide] | < 10 | < 10 | < 10 | > 1000
C=CC(=O)Nc1cc(Nc2cc(Nc3ccc(OCC4(C)COC4)c(Cl)c3)ncn2)c(OC)cc1N(C)CCN(C)C [Compound 252, N-(5-(6-(3-chloro-4-(3-methyl-oxetan-3-yl-methoxyl)-phenylamino)-pyrimidin-4-yl-amino)-2-((2-dimethylamino-ethyl)-methyl-amino)-4-methoxyl-phenyl)-acrylamide] | 10 to 100 | 10 to 100 | 10 to 100 | > 1000
C=CC(=O)Nc1cc(Nc2cc(Nc3ccc(O)c(Cl)c3)ncn2)c(OC)cc1N(C)CCN(C)C [Compound 253, N-(5-(6-(3-chloro-4-hydroxylphenylamino)-pyrimidin-4-ylamino)-2-((2-dimethylamino-ethyl)-methyl-amino)-4-methoxyl-phenyl)-acrylamide] | 10 to 100 | 10 to 100 | 10 to 100 | > 1000
C=CC(=O)Nc1cc(Nc2cc(Nc3ccc(OCC4CCCO4)c(Cl)c3)ncn2)c(OC)cc1N(C)CCN(C)C (centres unmarked) [Compound 254, N-(5-(6-(3-chloro-4-(tetrahydrofuran-2-ylmethoxy)-phenylamino)-pyrimidin-4-ylamino)-2-((2-dimethylamino-ethyl)-methyl-amino)-4-methoxyl-phenyl)-acrylamide] | 10 to 100 | 10 to 100 | 10 to 100 | > 1000
C=CC(=O)Nc1cc(Nc2cc(Nc3ccc(OC)c(C#N)c3)ncn2)c(OC)cc1N(C)CCN(C)C [Compound 255, N-(5-(6-(3-cyano-4-methoxyphenylamino)-pyrimidin-4-yl-amino)-2-((2-dimethylamino-ethyl)-methyl-amino)-4-methoxyl-phenyl)-acrylamide] | 10 to 100 | 10 to 100 | 10 to 100 | > 1000
C=CC(=O)Nc1cc(Nc2cc(Nc3ccc(OC)c(C(C)=O)c3)ncn2)c(OC)cc1N(C)CCN(C)C [Compound 256, N-(5-(6-(3-acetyl-4-methoxyphenylamino)-pyrimidin-4-yl-amino)-2-((2-dimethylamino-ethyl)-methyl-amino)-4-methoxyl-phenyl)-acrylamide] | 10 to 100 | 10 to 100 | 10 to 100 | > 1000
